The record followed here is patent US20160158317A1, “Antimicrobial Peptide Variants and Polynucleotides Encoding Same” (Adenium Biotech A/S, priority 2010, published 2016).

Each structure is given as a SMILES string. Where a SMILES comes first, the peptide text is derived from it. Bridges are numbered along the chain shown (N, C = ends).

This data set in a line: Determination of the protein binding (90% serum, 30 kDa filter, HPLC). Type of data set: in vitro ADME. The conditions noted are these: serum. Here is the method:
Protein binding assays were performed as follows. The purified peptides were mixed with 90% serum and centrifuged through a 30 kDa filter. The ultra-filtrate and the non filtrated serum samples were quantified by HPLC measurements and the protein binding was subsequently calculated.
In turn, `CC(C)[C@@H]1NC(=O)CNC(=O)[C@H](CC(N)=O)NC(=O)[C@H](CCCNC(=N)N)NC(=O)[C@H](Cc2ccc(O)cc2)NC(=O)[C@H](C(C)C)NC(=O)[C@@H]2CSSC[C@H](NC(=O)[C@H](Cc3ccccc3)NC(=O)[C@H](CCCNC(=N)N)NC1=O)C(=O)N[C@@H](Cc1c[nH]cn1)C(=O)N[C@@H](CCCNC(=N)N)C(=O)N[C@@H](CCCNC(=N)N)C(=O)N[C@H](C(=O)N[C@@H](CC(N)=O)C(=O)O)CSSC[C@H](NC(=O)[C@H](Cc1ccccc1)NC(=O)CN)C(=O)N[C@@H](Cc1c[nH]c3ccccc13)C(=O)N[C@@H](CC(N)=O)C(=O)N[C@@H](C(C)C)C(=O)N2` [compound 245] (H-GFCWNVCVYRNGVRFCHRRCN-OH; disulfide 3-20, 7-16 (inferred); N-terminus and C-terminus assumed) had a fraction unbound of 0.15.

With `CC(C)[C@@H]1NC(=O)CNC(=O)[C@H](CC(N)=O)NC(=O)[C@H](CCCNC(=N)N)NC(=O)[C@H](Cc2ccc(O)cc2)NC(=O)[C@H](C(C)C)NC(=O)[C@@H]2CSSC[C@H](NC(=O)[C@H](C(C)C)NC(=O)[C@H](CCCNC(=N)N)NC1=O)C(=O)N[C@@H](Cc1c[nH]cn1)C(=O)N[C@@H](CCCNC(=N)N)C(=O)N[C@@H](CCCNC(=N)N)C(=O)N[C@H](C(=O)N[C@@H](CCCNC(=N)N)C(=O)O)CSSC[C@H](NC(=O)[C@H](Cc1ccccc1)NC(=O)CN)C(=O)N[C@@H](Cc1c[nH]c3ccccc13)C(=O)N[C@@H](CC(N)=O)C(=O)N[C@@H](C(C)C)C(=O)N2` [compound 289] (H-GFCWNVCVYRNGVRVCHRRCR-OH; disulfide 3-20, 7-16 (inferred); N-terminus and C-terminus assumed), the fraction unbound is 0.17.

As to `CC(C)[C@@H]1NC(=O)[C@@H]2CSSC[C@H](NC(=O)[C@H](C(C)C)NC(=O)[C@H](CCCNC(=N)N)NC(=O)[C@H](C(C)C)NC(=O)[C@H](CCCNC(=N)N)NC(=O)[C@H](CC(N)=O)NC(=O)[C@H](CCCNC(=N)N)NC(=O)[C@H](Cc3ccc(O)cc3)NC1=O)C(=O)N[C@@H](Cc1c[nH]cn1)C(=O)N[C@@H](CCCNC(=N)N)C(=O)N[C@@H](CCCNC(=N)N)C(=O)N[C@H](C(=O)N[C@@H](CC(N)=O)C(=O)O)CSSC[C@H](NC(=O)[C@H](Cc1ccccc1)NC(=O)CN)C(=O)N[C@@H](Cc1c[nH]c3ccccc13)C(=O)N[C@@H](CC(N)=O)C(=O)N[C@@H](C(C)C)C(=O)N2` [compound 228] (H-GFCWNVCVYRNRVRVCHRRCN-OH; disulfide 3-20, 7-16 (inferred); N-terminus and C-terminus assumed), the fraction unbound was 0.14.

As for `CC(C)[C@@H]1NC(=O)CNC(=O)[C@H](C)NC(=O)[C@H](CCCNC(=N)N)NC(=O)[C@H](Cc2ccc(O)cc2)NC(=O)[C@H](C(C)C)NC(=O)[C@@H]2CSSC[C@H](NC(=O)[C@H](C(C)C)NC(=O)[C@H](CCCNC(=N)N)NC1=O)C(=O)N[C@@H](Cc1c[nH]cn1)C(=O)N[C@@H](CCCNC(=N)N)C(=O)N[C@@H](CCCNC(=N)N)C(=O)N[C@H](C(=O)N[C@@H](CC(N)=O)C(=O)O)CSSC[C@H](NC(=O)[C@H](Cc1ccccc1)NC(=O)CN)C(=O)N[C@@H](Cc1c[nH]c3ccccc13)C(=O)N[C@@H](CC(N)=O)C(=O)N[C@@H](C(C)C)C(=O)N2` [compound 230] (H-GFCWNVCVYRAGVRVCHRRCN-OH; disulfide 3-20, 7-16 (inferred); N-terminus and C-terminus assumed), the fraction unbound was 0.29.

In turn, `CC(C)[C@@H]1NC(=O)[C@H](CCCNC(=N)N)NC(=O)[C@H](Cc2c[nH]c3ccccc23)NC(=O)[C@@H](NC(=O)[C@H](Cc2ccccc2)NC(=O)CN)CSSC[C@@H](C(=O)N[C@@H](CC(N)=O)C(=O)O)NC(=O)[C@H](CCCNC(=N)N)NC(=O)[C@H](CCCNC(=N)N)NC(=O)[C@H](Cc2ccc(O)cc2)NC(=O)[C@@H]2CSSC[C@H](NC1=O)C(=O)N[C@@H](Cc1c[nH]cn1)C(=O)N[C@@H](Cc1ccc(O)cc1)C(=O)N[C@@H](CCCNC(=N)N)C(=O)N[C@@H](CC(N)=O)C(=O)N[C@@H](CO)C(=O)N[C@@H](C(C)C)C(=O)N[C@@H](CCCNC(=N)N)C(=O)N[C@@H](C(C)C)C(=O)N2` [compound 327] (H-GFCWRVCHYRNSVRVCYRRCN-OH; disulfide 3-20, 7-16 (inferred); N-terminus and C-terminus assumed) had a fraction unbound of 0.02.

Regarding `CC(C)[C@@H]1NC(=O)[C@H](CCCNC(=N)N)NC(=O)[C@H](CCCCN)NC(=O)CNC(=O)[C@H](CC(N)=O)NC(=O)[C@H](CO)NC(=O)[C@H](Cc2ccc(O)cc2)NC(=O)[C@H](Cc2c[nH]cn2)NC(=O)[C@@H]2CSSC[C@H](NC1=O)C(=O)N[C@@H](Cc1ccc(O)cc1)C(=O)N[C@@H](CCCNC(=N)N)C(=O)N[C@@H](CCCNC(=N)N)C(=O)N[C@H](C(=O)N[C@@H](CC(N)=O)C(=O)O)CSSC[C@H](NC(=O)[C@H](Cc1ccccc1)NC(=O)CN)C(=O)N[C@@H](Cc1c[nH]c3ccccc13)C(=O)N[C@@H](CCCNC(=N)N)C(=O)N[C@@H](C(C)C)C(=O)N2` [compound 439] (H-GFCWRVCHYSNGKRVCYRRCN-OH; disulfide 3-20, 7-16 (inferred); N-terminus and C-terminus assumed), the fraction unbound is 0.08.

As for `CC(C)[C@@H]1NC(=O)CNC(=O)[C@H](CC(N)=O)NC(=O)[C@H](CCCNC(=N)N)NC(=O)[C@H](Cc2ccc(O)cc2)NC(=O)[C@H](CO)NC(=O)[C@@H]2CSSC[C@H](NC(=O)[C@H](CCCCN)NC(=O)[C@H](CCCNC(=N)N)NC1=O)C(=O)N[C@@H](Cc1ccc(O)cc1)C(=O)N[C@@H](CCCNC(=N)N)C(=O)N[C@@H](CCCNC(=N)N)C(=O)N[C@H](C(=O)N[C@@H](CC(N)=O)C(=O)O)CSSC[C@H](NC(=O)[C@H](Cc1ccccc1)NC(=O)CN)C(=O)N[C@@H](Cc1c[nH]c3ccccc13)C(=O)N[C@@H](CCCNC(=N)N)C(=O)N[C@@H](C(C)C)C(=O)N2` [compound 331] (H-GFCWRVCSYRNGVRKCYRRCN-OH; disulfide 3-20, 7-16 (inferred); N-terminus and C-terminus assumed), the fraction unbound was 0.05.

The compound `CC(C)[C@@H]1NC(=O)CNC(=O)[C@H](CC(N)=O)NC(=O)[C@H](CCCNC(=N)N)NC(=O)[C@H](Cc2ccc(O)cc2)NC(=O)[C@H](C(C)C)NC(=O)[C@@H]2CSSC[C@H](NC(=O)[C@H](C(C)C)NC(=O)[C@H](CCCNC(=N)N)NC1=O)C(=O)N[C@@H](Cc1c[nH]cn1)C(=O)N[C@@H](CCCNC(=N)N)C(=O)N[C@@H](CCCNC(=N)N)C(=O)N[C@H](C(=O)N[C@@H](CCCCN)C(=O)O)CSSC[C@H](NC(=O)[C@H](Cc1ccccc1)NC(=O)CN)C(=O)N[C@@H](Cc1c[nH]c3ccccc13)C(=O)N[C@@H](CC(N)=O)C(=O)N[C@@H](C(C)C)C(=O)N2` [compound 284] (H-GFCWNVCVYRNGVRVCHRRCK-OH; disulfide 3-20, 7-16 (inferred); N-terminus and C-terminus assumed) showed a fraction unbound of 0.28.

`CC(C)[C@@H]1NC(=O)CNC(=O)[C@H](CC(N)=O)NC(=O)[C@H](CCCNC(=N)N)NC(=O)[C@H](Cc2ccc(O)cc2)NC(=O)[C@H](C(C)C)NC(=O)[C@@H]2CSSC[C@H](NC(=O)[C@H](C(C)C)NC(=O)[C@H](CCCNC(=N)N)NC1=O)C(=O)N[C@@H](Cc1ccc(O)cc1)C(=O)N[C@@H](CCCNC(=N)N)C(=O)N[C@@H](CCCNC(=N)N)C(=O)N[C@H](C(=O)N[C@H](C(=O)O)[C@@H](C)O)CSSC[C@H](NC(=O)[C@H](Cc1ccccc1)NC(=O)CN)C(=O)N[C@@H](Cc1c[nH]c3ccccc13)C(=O)N[C@@H](Cc1ccc(O)cc1)C(=O)N[C@@H](C(C)C)C(=O)N2` [compound 54] (H-GFCWYVCVYRNGVRVCYRRCT-OH; disulfide 3-20, 7-16 (inferred); N-terminus and C-terminus assumed) came in with a fraction unbound of 0.01.

Take `CC(C)[C@@H]1NC(=O)CNC(=O)[C@H](CC(N)=O)NC(=O)[C@H](CCCNC(=N)N)NC(=O)[C@H](Cc2ccc(O)cc2)NC(=O)[C@H](C(C)C)NC(=O)[C@@H]2CSSC[C@H](NC(=O)[C@H](CO)NC(=O)[C@H](CCCNC(=N)N)NC1=O)C(=O)N[C@@H](Cc1c[nH]cn1)C(=O)N[C@@H](CCCNC(=N)N)C(=O)N[C@@H](CCCNC(=N)N)C(=O)N[C@H](C(=O)N[C@@H](CC(N)=O)C(=O)O)CSSC[C@H](NC(=O)[C@H](Cc1ccccc1)NC(=O)CN)C(=O)N[C@@H](Cc1c[nH]c3ccccc13)C(=O)N[C@@H](CCCNC(=N)N)C(=O)N[C@@H](C(C)C)C(=O)N2` [compound 316] (H-GFCWRVCVYRNGVRSCHRRCN-OH; disulfide 3-20, 7-16 (inferred); N-terminus and C-terminus assumed): the fraction unbound was 0.1.

Take `CC(C)[C@@H]1NC(=O)CNC(=O)[C@H](CC(N)=O)NC(=O)[C@H](CCCNC(=N)N)NC(=O)[C@H](Cc2ccc(O)cc2)NC(=O)[C@H](C(C)C)NC(=O)[C@@H]2CSSC[C@H](NC(=O)[C@H](C(C)C)NC(=O)[C@H](CCCNC(=N)N)NC1=O)C(=O)N[C@@H](Cc1ccc(O)cc1)C(=O)N[C@@H](CCCNC(=N)N)C(=O)N[C@@H](CCCNC(=N)N)C(=O)N[C@H](C(=O)N[C@@H](CC(N)=O)C(=O)O)CSSC[C@H](NC(=O)[C@H](Cc1ccccc1)NC(=O)CN)C(=O)NCC(=O)N[C@@H](Cc1c[nH]cn1)C(=O)N[C@@H](C(C)C)C(=O)N2` [compound 60] (H-GFCGHVCVYRNGVRVCYRRCN-OH; disulfide 3-20, 7-16 (inferred); N-terminus and C-terminus assumed): the fraction unbound was 0.36.

The compound `CC(C)[C@@H]1NC(=O)[C@H](CCCNC(=N)N)NC(=O)[C@H](CCCNC(=N)N)NC(=O)CNC(=O)[C@H](CC(N)=O)NC(=O)[C@H](CCCNC(=N)N)NC(=O)[C@H](Cc2ccc(O)cc2)NC(=O)[C@H](C(C)C)NC(=O)[C@@H]2CSSC[C@H](NC1=O)C(=O)N[C@@H](Cc1c[nH]cn1)C(=O)N[C@@H](CCCNC(=N)N)C(=O)N[C@@H](CCCNC(=N)N)C(=O)N[C@H](C(=O)N[C@@H](CC(N)=O)C(=O)O)CSSC[C@H](NC(=O)[C@H](Cc1ccccc1)NC(=O)CN)C(=O)N[C@@H](Cc1c[nH]c3ccccc13)C(=O)N[C@@H](CC(N)=O)C(=O)N[C@@H](C(C)C)C(=O)N2` [compound 239] (H-GFCWNVCVYRNGRRVCHRRCN-OH; disulfide 3-20, 7-16 (inferred); N-terminus and C-terminus assumed) showed a fraction unbound of 0.35.

Broadly, the fraction unbound is free concentration divided by total concentration.
